Results taken from the NIST ThermoML archive (doi:10.1021/acs.jced.7b00601).
Numbers after ± are expanded uncertainties.

Legend:
[1] = Molar enthalpy of transition or fusion; details: Crystal; DSC
[2] = Crystal; DTA

COc1c(N2CCNC(C)C2)c(F)cc2c(=O)c(C(=O)O)cn(C3CC3)c12 (configuration not stated) [gatifloxacin]
Molar enthalpy of transition or fusion [1]: 8.35 ± 0.232 kcal/mol
Normal melting temperature [2]: 162.00 ± 2.9 °C
